{
  "source": "patent US20240182596A1",
  "about": "“ANTI-NAPI2B ANTIBODIES AND ANTIBODY-DRUG-CONJUGATES BASED THEREON, THERAPEUTIC METHODS AND USES THEREOF” (Tubulis GmbH, priority 2022, published 2024)",
  "tested_on": "OVCAR-3 cells",
  "test": "In vitro inhibition of Topoisomerase-I by delivery of Exatecan via the ADC (DNA-damage markers)",
  "type": "cell-based",
  "settings": "5 μg/mL, 72 h",
  "experimental": "OVCAR-3 cells were treated with 5 μg/mL TUB-040 or 5 nM free Exatecan for 72 h. Cells were stained with Live/Dead stain and for the DNA-damage markers active caspase-3, cleaved PARP and phosphorylated H2A.X (Ser-139) and analyzed by flow cytometry. Graphs show means of n=2±SEM (FIG. 9).",
  "data": [
    {"substance": "TUB-040", "values": [
      {"measurement": "Induction of DNA-damage markers (active caspase-3, cleaved PARP, phosphorylated H2A.X)", "value": "induces DNA-damage markers"}
    ]}
  ]
}
